# Peptide text beside a SMILES is read from it.
# Columns and labels:
# Type in all cases: biochemical
# [1] = biological target: T1, human recombinant caspase-2 (Homo sapiens, UniProt P42575); assay: In vitro caspase-2 cleavage assay (Ac-VDVAD-AMC substrate); set-up: key to Group (pattern of caspase-2 inhibition curve): group 1 referred to inhibitors that were relatively more active than VDVAD(SEQ ID NO:9)-based inhibitors against caspase-2 at lower doses, but with similar IC50 values; group 2 referred to VDVAD(SEQ ID NO:9)-based inhibitor with characteristic sigmoid dose-response; group 3 referred to pentapetidic-based inhibitors that were less active than VDVAD(SEQ ID NO:9)-based inhibitors against caspase-2 at lower doses and that exhibited higher IC50; conditions: for Group (pattern of caspase-2 inhibition curve) / IC50: Table 4; for IC50: 30 min pre-incubation, 2 h at 37° C.
# T1 construct: purchased BIOMOL
# T1 sequence (P42575 170-333 limits assumed): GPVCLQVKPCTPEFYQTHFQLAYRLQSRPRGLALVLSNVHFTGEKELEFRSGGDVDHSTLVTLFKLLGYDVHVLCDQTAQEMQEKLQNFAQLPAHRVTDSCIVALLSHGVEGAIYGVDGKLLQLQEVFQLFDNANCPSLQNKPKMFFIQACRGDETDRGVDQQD
# T1 sequence (P42575 348-452 limits assumed): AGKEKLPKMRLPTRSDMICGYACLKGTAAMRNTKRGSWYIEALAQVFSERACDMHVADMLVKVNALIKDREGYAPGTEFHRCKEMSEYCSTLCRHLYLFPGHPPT
# Method: Newly designed inhibitors (Ac-LDEAD(SEQ ID NO:7)-CHO, Ac-VDEAD(SEQ ID NO:1)-CHO . . . ) were compared to Ac-VDVAD(SEQ ID NO:9)-CHO in in vitro caspase-2 cleavage assay according to the following protocol (FIG. 8). Human recombinant caspases (25-50 U; QuantiZyme™ Assay System, BIOMOL, Plymouth, Pa., USA) were pre-incubated 30 min with inhibitors (0.005-2 μM) in final 100 μl final assay buffer (50 mM HEPES, pH 7.4, 100 mM NaCl, 0.1% CHAPS, 10 mM DTT, 1 mM EDTA, 10% glycerol) and then mixed with 200 μM of the fluorogenic caspase substrates (BIOMOL) Ac-VDVAD(SEQ ID NO:9)-AMC. An IC50 value corresponding to the concentration that could inhibit 50% of caspase activity was determined from the dose-response sigmoid curve. The cleavage of AMC-based substrates by human recombinant caspases 1-10 was measured after 2 h at 37° C. on a fluorescence microplate reader by monitoring emission at 510 nm upon excitation at 405 nm.
# other caspases = assay: In vitro cleavage assay on panel of human recombinant caspases (cross-reaction); conditions: at high doses
# Method: Newly designed inhibitors (Ac-LDEAD(SEQ ID NO:7)-CHO, Ac-VDEAD(SEQ ID NO:1)-CHO) . . . ) were tested against a large panel of caspase (1 to 10) during in vitro cleavage assay according to the following protocol. Human recombinant caspases (25-50 U; Biomol) were pre-incubated 30 min with inhibitors (0.005-2 μM) in final 100 μl final assay buffer (50 mM HEPES, pH 7.4, 100 mM NaCl, 0.1% CHAPS, 10 mM DTT, 1 mM EDTA, 10% glycerol) and then mixed with 200 μM of their specific fluorogenic caspase substrates (BIOMOL) (Ac-YVAD(SEQ ID NO:23)-AMC (caspase-1), Ac-VDVAD(SEQ ID NO:9)-AMC (caspase-2), Ac-DEVD(SEQ ID NO:24)-AMC (caspase-3/-7), Ac-VEID(SEQ ID NO:25)-AMC (caspase-6), Ac-IETD(SEQ ID NO:26)-AMC (caspase-81-10)1Ac-LEHD(SEQ ID NO:27)-AMC (caspase-9). The cleavage of AMC-based substrates by human recombinant caspases 1-10 was measured after 2 h at 37° C. on a fluorescence microplate reader by monitoring emission at 510 nm upon excitation at 405 nm.
# [2] = biological target: T2, Human recombinant calpain I (Homo sapiens, UniProt P07384); assay: Calpain I inhibition assay; conditions: 2 μM
# T2 construct: purchased Biomol
# T2 sequence (P07384 1-714): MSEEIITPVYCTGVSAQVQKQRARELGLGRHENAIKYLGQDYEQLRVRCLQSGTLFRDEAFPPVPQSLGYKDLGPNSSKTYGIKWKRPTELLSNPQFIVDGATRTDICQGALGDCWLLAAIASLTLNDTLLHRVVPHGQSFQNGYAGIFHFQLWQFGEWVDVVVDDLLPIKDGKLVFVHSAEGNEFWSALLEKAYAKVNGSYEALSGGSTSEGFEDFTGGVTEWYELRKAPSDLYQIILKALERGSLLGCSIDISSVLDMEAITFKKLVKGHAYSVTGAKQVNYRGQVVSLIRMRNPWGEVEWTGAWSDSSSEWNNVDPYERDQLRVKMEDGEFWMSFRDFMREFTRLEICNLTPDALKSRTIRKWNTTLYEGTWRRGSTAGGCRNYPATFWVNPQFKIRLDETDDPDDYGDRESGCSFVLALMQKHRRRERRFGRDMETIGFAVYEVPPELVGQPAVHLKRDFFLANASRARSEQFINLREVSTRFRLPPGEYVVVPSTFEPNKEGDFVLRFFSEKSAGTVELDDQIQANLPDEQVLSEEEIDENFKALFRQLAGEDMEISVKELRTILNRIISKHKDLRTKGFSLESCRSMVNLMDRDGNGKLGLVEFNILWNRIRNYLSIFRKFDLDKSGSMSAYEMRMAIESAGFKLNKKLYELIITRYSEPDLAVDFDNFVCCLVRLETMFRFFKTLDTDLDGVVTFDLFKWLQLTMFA
# T2 sequence (P04632 1-268 partner): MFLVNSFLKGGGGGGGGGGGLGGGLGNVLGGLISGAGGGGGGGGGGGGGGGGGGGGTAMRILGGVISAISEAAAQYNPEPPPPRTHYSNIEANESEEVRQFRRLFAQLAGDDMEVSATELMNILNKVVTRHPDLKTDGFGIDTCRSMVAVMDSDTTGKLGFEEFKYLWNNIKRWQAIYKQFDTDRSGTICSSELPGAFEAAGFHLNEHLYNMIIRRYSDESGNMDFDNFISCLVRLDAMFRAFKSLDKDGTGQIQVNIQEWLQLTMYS
# Method: (§1) Additionally, specificity of newly designed inhibitors was checked against calpains and Granzyme B. Human recombinant calpain I (0.8 U) and rat recombinant calpain II (20 U) (both from Biomol) were pre-incubated 30 min with inhibitors in final 100 μl final assay buffer (50 mM HEPES, pH 7.4, 100 mM NaCl, 0.1% CHAPS, 5 mM CaCl2, 1 mM EDTA, 10% glycerol, 2 mM β-mercaptoethanol) and then mixed with 20 μM of the fluorogenic calpain substrates I or II (Calbiochem), respectively. ALLN and ALLM (1 μM) were internal controls for inhibition. The cleavage of substrates by recombinant enzymes was measured after 2 h at 37° C. on a fluorescence microplate reader by monitoring emission at 460 nm upon excitation at 380 nm for calpain I or emmission at 530 nm upon excitation at 485 nm for calpain II. Human granzyme B (50 U; Biomol) was pre-incubated 10 min with inhibitors in final 100 μl final granzyme assay buffer (Biomol) and then mixed with 400 μM of Ac-IEPD-pNA (Biomol). 3,4 DCIC (1 μM) was used as positive control for inhibition. The cleavage of substrate was measured after 1 h at 37° C. on a spectrophotometer at […]. Ac-IEPD-pNA is DEQ ID NO:29.
# [3] = biological target: T3, rat recombinant calpain II (Rattus norvegicus, UniProt Q07009); assay: Calpain II inhibition assay; conditions: 2 μM
# T3 construct: purchased Biomol
# T3 sequence (Q07009 1-700): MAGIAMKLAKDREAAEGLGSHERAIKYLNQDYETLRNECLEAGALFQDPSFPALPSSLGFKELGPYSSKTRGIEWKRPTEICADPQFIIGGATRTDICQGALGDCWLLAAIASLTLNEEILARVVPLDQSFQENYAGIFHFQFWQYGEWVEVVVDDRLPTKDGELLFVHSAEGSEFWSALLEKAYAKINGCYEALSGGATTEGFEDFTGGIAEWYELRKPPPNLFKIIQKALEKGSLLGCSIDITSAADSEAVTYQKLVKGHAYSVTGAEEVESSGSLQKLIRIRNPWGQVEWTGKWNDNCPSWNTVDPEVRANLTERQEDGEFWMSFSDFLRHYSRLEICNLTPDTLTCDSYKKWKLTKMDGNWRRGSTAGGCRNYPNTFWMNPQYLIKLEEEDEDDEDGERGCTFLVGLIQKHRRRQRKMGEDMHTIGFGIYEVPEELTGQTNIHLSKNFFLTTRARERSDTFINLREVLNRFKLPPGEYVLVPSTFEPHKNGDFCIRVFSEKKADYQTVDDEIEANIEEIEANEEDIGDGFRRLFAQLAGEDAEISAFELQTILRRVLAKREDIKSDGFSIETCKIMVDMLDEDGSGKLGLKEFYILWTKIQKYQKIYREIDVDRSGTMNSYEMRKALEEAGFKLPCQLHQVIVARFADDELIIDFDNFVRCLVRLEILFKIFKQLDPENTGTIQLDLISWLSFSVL
# T3 sequence (Q64537 87-270 partner limits assumed): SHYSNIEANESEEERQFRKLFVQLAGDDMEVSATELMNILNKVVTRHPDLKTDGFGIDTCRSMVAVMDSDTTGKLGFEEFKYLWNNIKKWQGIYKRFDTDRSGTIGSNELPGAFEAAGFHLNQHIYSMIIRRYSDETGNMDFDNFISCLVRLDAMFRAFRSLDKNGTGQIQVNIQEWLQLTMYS
# Method: as §1
# Human granzyme B = biological target: T4, Human granzyme B (Homo sapiens, UniProt P10144); assay: Granzyme B inhibition assay (Ac-IEPD-pNA); conditions: 2 μM
# T4 construct: purchased Biomol
# Method: as §1
# T4 sequence (P10144 21-247): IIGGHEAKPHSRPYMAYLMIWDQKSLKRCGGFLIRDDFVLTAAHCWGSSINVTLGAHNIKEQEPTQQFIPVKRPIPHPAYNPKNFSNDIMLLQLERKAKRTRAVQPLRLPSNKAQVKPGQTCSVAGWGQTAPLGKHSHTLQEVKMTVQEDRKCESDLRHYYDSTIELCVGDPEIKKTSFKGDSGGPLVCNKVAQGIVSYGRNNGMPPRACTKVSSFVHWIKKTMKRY
Compound,Group (pattern of caspase-2 inhibition curve) [1],"VDVAD-AMC cleavage by caspase-2 ([1]; recombinant caspase-2, FIG. 16)",inhibition of other caspases (cross-reaction) (other caspases),IC50 [1] [nM],inhibition of calpain I [2],inhibition of calpain II [3],inhibition of granzyme B (Human granzyme B)
"CC(=O)N[C@H](C(=O)N[C@@H](CC(=O)O)C(=O)N[C@H](C(=O)N[C@@H](C)C(=O)N[C@H](C=O)CC(=O)O)C(C)C)C(C)C [Compound 8, Ac-VDVAD-cho, reference compound] (Ac-VDVAD-aldehyde)",2,blocked,less than 20%,,,,
"CC(=O)N[C@@H](CC(C)C)C(=O)N[C@@H](CC(=O)O)C(=O)N[C@@H](CCC(=O)O)C(=O)N[C@@H](C)C(=O)N[C@H](C=O)CC(=O)O [Compound 14, Ac-LDEAD(SEQ ID NO:7)-cho] (Ac-LDEAD-aldehyde)",1,,,85 ± 6,not strong inhibitors,not strong inhibitors,not strong inhibitors
"CC(=O)N[C@H](C(=O)N[C@@H](CC(=O)O)C(=O)N[C@@H](CCC(=O)O)C(=O)N[C@@H](C)C(=O)N[C@H](C=O)CC(=O)O)C(C)C [Compound 20, Ac-VDEAD(SEQ ID NO:1)-cho] (Ac-VDEAD-aldehyde)",1,,,85 ± 5,not strong inhibitors,not strong inhibitors,not strong inhibitors

# Reference: US8324173B2, “Peptides useful as dual caspase-2/-6 inhibitors and their biological applications” (Chiesi Farmaceutici S.p.A., priority 2004, dated 2012)
